Ki and Kd data for seven compounds are collected here from US10857196B2, “Bicyclic peptide ligands and uses thereof” (BicycleTx Limited, priority 2017, dated 2020).

pKd, pKi: −log10 of the molar value. Square brackets hold non-standard residues; d marks the D form. Ends that are not written are not given here. 1Nal = N[C@@H](Cc1cccc2ccccc12)C(=O)O; Tle = CC(C)(C)[C@H](N)C(=O)O; βAla = NCCC(=O)O; Sar = CNCC(=O)O Bounds are passed on as bounds.

The target in assay [1] is T1, CAIX (Homo sapiens, UniProt Q16790). Kind of assay: CAIX competition binding assay (competition fluorescence polarization). Conditions: fluorescent ligand A-(CAECWIDGWVPC)-A-Sar6-K(Fl). How it is done: CAIX Competition Binding Assay Affinity of the peptides of the invention for human CAIX (Ki) was determined using a competition fluorescence polarization assay analogous to that described in Dubois et al. (2011) Radiotherapy and Oncology 99(3), 424-43 using A-(CAECWIDGWVPC)-A-Sar6-K(Fl) (SEQ ID NO: 5) as the fluorescent ligand.
A Ki value designated “A” denotes a Ki of ≤50 nM; a Ki value designated “B” denotes a K, of >50 nM and ≤100 nM; a Ki value designated “C” denotes a Ki of >100 nM and ≤1,000 nM; and a Ki value designated “D” denotes a Ki of >1,000 nM.

The target of the next assay is MT1-MMP (Homo sapiens, UniProt P50281). Particulars: bicyclic peptide formed with TBMB scaffold; MT1-MMP binder; cited from earlier work.
For assay [2], the target named is T1, CAIX. Conditions: bicyclic peptide formed with TBMB scaffold; CAIX binder; cited from earlier work.

For orientation: pKi means the Ki on a negative log10 scale, so that one unit is a factor of ten. Lower therefore signals a high Ki. As to `CC(C)[C@@H]1NC(=O)[C@H](Cc2c[nH]c3ccccc23)NC(=O)[C@@H]2CSCC(=O)N3CC45CN(C[C@@]4(CN(C5)C(=O)CSC[C@H](NC(=O)[C@H](C)NC(=O)CN(C)C(=O)CN(C)C(=O)CN(C)C(=O)CN(C)C(=O)CN(C)C(=O)CN(C)C(=O)CN(C)C(=O)CN(C)C(=O)CN(C)C(=O)CN(C)C(=O)CCN)C(=O)N[C@@H]([C@@H](C)O)C(=O)N[C@@H](CCC(=O)O)C(=O)N2)C3)C(=O)CSC[C@@H](C(N)=O)NC(=O)[C@@H]2CCCN2C(=O)[C@H](C(C)C)NC(=O)[C@H](Cc2c[nH]c3ccccc23)NC(=O)CNC(=O)[C@H](CC(=O)O)NC1=O` [Compound I-23], the pKi on CAIX [1] was less than 6.00. On the same count and under the same terms, the figure for `CC(C)[C@@H]1NC(=O)[C@H](Cc2c[nH]c3ccccc23)NC(=O)[C@@H]2CSCCC(=O)N3CC45CN(CC4(CN(C5)C(=O)CCSC[C@H](NC(=O)[C@H](C)NC(=O)CN(C)C(=O)CN(C)C(=O)CN(C)C(=O)CN(C)C(=O)CN(C)C(=O)CN(C)C(=O)CN(C)C(=O)CN(C)C(=O)CN(C)C(=O)CN(C)C(=O)CCN)C(=O)N[C@@H]([C@@H](C)O)C(=O)N[C@@H](CCC(=O)O)C(=O)N2)C3)C(=O)CCSC[C@@H](C(=O)O)NC(=O)[C@@H]2CCCN2C(=O)[C@H](C(C)C)NC(=O)[C@H](Cc2c[nH]c3ccccc23)NC(=O)CNC(=O)[C@H](CC(=O)O)NC1=O` [Compound I-24] is less than 6.00; for `CC(C)[C@@H]1NC(=O)[C@H](Cc2c[nH]c3ccccc23)NC(=O)[C@@H]2CSCC(=O)N3CCOCCN(CCOCCN(CCOCC3)C(=O)CSC[C@H](NC(=O)[C@H](C)NC(=O)CN(C)C(=O)CN(C)C(=O)CN(C)C(=O)CN(C)C(=O)CN(C)C(=O)CN(C)C(=O)CN(C)C(=O)CN(C)C(=O)CN(C)C(=O)CN(C)C(=O)CCN)C(=O)N[C@@H]([C@@H](C)O)C(=O)N[C@@H](CCC(=O)O)C(=O)N2)C(=O)CSC[C@@H](C(=O)O)NC(=O)[C@@H]2CCCN2C(=O)[C@H](C(C)C)NC(=O)[C@H](Cc2c[nH]c3ccccc23)NC(=O)CNC(=O)[C@H](CC(=O)O)NC1=O` [Compound I-26] it is 6.00 to 7.00; for `CC(C)[C@@H]1NC(=O)[C@H](Cc2c[nH]c3ccccc23)NC(=O)[C@@H]2CSCCS(=O)(=O)N3CCN(CCN(CC3)S(=O)(=O)CCSC[C@H](NC(=O)[C@H](C)NC(=O)CN(C)C(=O)CN(C)C(=O)CN(C)C(=O)CN(C)C(=O)CN(C)C(=O)CN(C)C(=O)CN(C)C(=O)CN(C)C(=O)CN(C)C(=O)CN(C)C(=O)CCN)C(=O)N[C@@H]([C@@H](C)O)C(=O)N[C@@H](CCC(=O)O)C(=O)N2)S(=O)(=O)CCSC[C@@H](C(=O)O)NC(=O)[C@@H]2CCCN2C(=O)[C@H](C(C)C)NC(=O)[C@H](Cc2c[nH]c3ccccc23)NC(=O)CNC(=O)[C@H](CC(=O)O)NC1=O` [Compound I-62] it is 6.00 to 7.00. `CC(C)[C@@H]1NC(=O)[C@H](Cc2c[nH]c3ccccc23)NC(=O)[C@@H]2CSCC(=O)NCCN(CCNC(=O)CSC[C@@H](C(N)=O)NC(=O)[C@@H]3CCCN3C(=O)[C@H](C(C)C)NC(=O)[C@H](Cc3c[nH]c4ccccc34)NC(=O)CNC(=O)[C@H](CC(=O)O)NC1=O)CCNC(=O)CSC[C@H](NC(=O)[C@H](C)NC(=O)CN(C)C(=O)CN(C)C(=O)CN(C)C(=O)CN(C)C(=O)CN(C)C(=O)CN(C)C(=O)CN(C)C(=O)CN(C)C(=O)CN(C)C(=O)CN(C)C(=O)CCN)C(=O)N[C@@H]([C@@H](C)O)C(=O)N[C@@H](CCC(=O)O)C(=O)N2` [Compound I-63]: the pKi on CAIX [1] was no less than 7.30. As usually defined, the pKd is the Kd on a negative log10 scale, so that one unit is a factor of ten. For the compound “βAla-Sar10-A-C(D-Ala)NE(1Nal)(D-Ala)CEDFYD(tBuGLy)C ([βAla][Sar][Sar][Sar][Sar][Sar][Sar][Sar][Sar][Sar][Sar]AC[dA]NE[1Nal][dA]CEDFYD[Tle]C; cysteine pairing not given here) [17-69-07-N241]”, the pKd in the assay with MT1-MMP was 8.92. With βAla-Sar10-A-CTECWVDGWVPC [Compound 2], on CAIX [2], the pKd was 8.00.
